In article doi:10.1101/2024.07.14.603434v1 (biorxiv, 2024) one finds Km data, which are given here for three compounds.

One experiment has as its target T1, NagA (Streptomyces coelicolor, UniProt Q9KXV7).
T1 sequence (Q9KXV7 1-381): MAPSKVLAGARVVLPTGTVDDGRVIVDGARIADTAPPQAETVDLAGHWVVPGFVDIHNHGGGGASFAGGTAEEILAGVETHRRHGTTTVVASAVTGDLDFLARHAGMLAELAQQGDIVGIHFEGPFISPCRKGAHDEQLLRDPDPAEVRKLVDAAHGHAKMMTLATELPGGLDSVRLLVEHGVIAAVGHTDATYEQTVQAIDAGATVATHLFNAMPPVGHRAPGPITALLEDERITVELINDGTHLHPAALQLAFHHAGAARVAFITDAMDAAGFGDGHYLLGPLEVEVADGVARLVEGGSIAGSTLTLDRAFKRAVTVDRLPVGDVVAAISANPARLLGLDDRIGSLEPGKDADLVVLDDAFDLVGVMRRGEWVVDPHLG
The experiment in a line: decrease of amide absorbance at […] nm. Type of experiment: biochemical. As to conditions: phosphate buffer pH 7.4, 30 °C.

The next experiment addresses T2, NagS (Streptomyces coelicolor, UniProt Q9K3V1).
T2 sequence (Q9K3V1 1-251): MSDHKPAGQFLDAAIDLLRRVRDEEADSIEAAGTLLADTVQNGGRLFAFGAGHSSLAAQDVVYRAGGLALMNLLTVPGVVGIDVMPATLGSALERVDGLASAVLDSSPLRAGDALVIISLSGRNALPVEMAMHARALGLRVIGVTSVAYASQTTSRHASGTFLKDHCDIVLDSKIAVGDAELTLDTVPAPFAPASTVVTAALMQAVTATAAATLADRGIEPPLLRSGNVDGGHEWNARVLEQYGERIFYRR
Description: UV absorbance of product at […] nm. Type of experiment: biochemical. As to conditions: 100 mM phosphate, 100 mM NaCl, pH 7.4 buffer stock; 30 °C.

For `CC(=O)N[C@H]1C(O)O[C@H](COP(=O)(O)O)[C@H](O)[C@@H]1O` (some centres unmarked) [GalNAc-6P], the Michaelis constant (Km) on NagA was determined as 2840 ± 410 µM.

With `CC(=O)N[C@H]1C(O)O[C@H](COP(=O)(O)O)[C@@H](O)[C@@H]1O` (some centres unmarked) [GlcNAc-6P], the Km was 1590 ± 210 µM at NagA and 450 ± 30 µM on NagS.

With `CC(=O)N[C@@H]1C(O)O[C@H](COP(=O)(O)O)[C@@H](O)[C@@H]1O` (some centres unmarked) [ManNAc-6P], the Km at NagA stood at 2400 ± 440 µM; at NagS, 680 ± 50 µM.

In general, Km refers to the substrate concentration at which the rate is half of its maximum.
